Key:
Human fibroblasts = assay: mmRNA (OSKMN) reprogramming of fibroblasts to naïve-like iPSC colonies in microfluidics; type: cell-based
Description: Microfluidic channels were coated with 25 μg/ml fibronectin (Sigma Aldrich) for 30 min at room temperature. Somatic cells were seeded on day −1 of reprogramming at 25 cells/mm^2 for feeder-free reprogramming in DMEM/10% FBS. Such seeding density allowed robust proliferation and survival of somatic cells during reprogramming. On day 0, 2 hours before the first mmRNA transfection, the medium was changed to PRM, a medium optimized from mRNA transfection and previously used for derivation of primed PSCs (StemMACS ReproBREW XF, Miltenyi biotec). When indicated, 1 μM CH, 1 μM CH and 5 μM Ri were added to PRM. Transfection period is of 9 h. Cells were transfected daily at 9 am, and fresh PRM was given daily at 6 pm. On day 6, medium was changed with a naïve supporting medium according to table 1 and the same regime of transfection and fresh medium change was maintained until day 12. From day 0 to 12, media were supplemented with 200 ng/mL^−1 B18R (eBioscience). Transfections using a OSKMN+nGFP mmRNA mix (POU5F1, SOX2, KLF4, c-MYC, NANOG, nuclear GFP) were started on day 0 and daily repeated for 12 d. […]
Freshly-derived colonies were then cultured for 3 days without mmRNAs (day 15) to allow their complete clearance, and analyzed in situ for naïve or primed associated markers. […] Success rate, measured as the percentage of microfluidic channels containing naïve-like colonies, was evaluated (FIG. 3c). […]

primed iPS cells = assay: Expansion of mixed primed- and naïve-like colonies generated in CCC with FGF receptor inhibitor; type: cell-based, human; details: expanded with inhibitor
Description: Side-by-side experiments comparing μF and CCC were performed. Generation of niPSCs in μF was robust (100% of channels contained colonies, with an efficiency of 3.7%+1.0 and 3.1%+0.4 from BJ and HFF-1, respectively, FIG. 9a). Conversely, in CCC only 25% of wells contained naïve-like colonies, with efficiency of 0.2% and 0.04%.

C[C@@H](N)[C@H]1CC[C@H](C(=O)Nc2ccncc2)CC1 [ROCK inhibitor, Y27632]
Effect on colony formation efficiency (Human fibroblasts; added to reprogramming in 2iLGo+KSR, OSKMN mmRNA, microfluidics (FIG. 3c-e)): increased colony formation efficiency

Cc1c[nH]c(-c2cnc(NCCNc3ccc(C#N)cn3)nc2-c2ccc(Cl)cc2Cl)n1 [CH, CHIR99021]
Formed naïve-like colonies, inhibitor added to PRM during the first 6 days (Human fibroblasts; PRM + 1 μM CHIR99021 days 0-6, then 2LiGo+KSR, compared with other inhibitor combinations (FIG. 3b)): Best results in term of formed colonies

CCN(CC)CCCCNc1ncc2cc(-c3cc(OC)cc(OC)c3)c(NC(=O)NC(C)(C)C)nc2n1 [PD173074]
Effect on primed iPS cells in mixed primed/naïve culture (primed iPS cells): primed iPS cells were eliminated
